# In the NIST ThermoML archive (doi:10.1016/j.jct.2012.09.017):
# Numbers after ± are expanded uncertainties.
# Assay: activity coefficient (dimensionless); of the first substance listed, at infinite dilution; xn = mol fraction of the nth substance listed
# Conditions: 343.15 K; 101 kPa; Liquid; Chromatography; x1 = 0
row,Compound,activity coefficient
1,CCCO [propan-1-ol] + CCCC[N+]1(C)CCCC1.N#C[B-](C#N)(C#N)C#N,1.24 ± 0.06
2,CCCO [propan-1-ol] + CCCC[N+]1(C)CCCC1.O=C1O[B-]2(OC1=O)OC(=O)C(=O)O2,2.3 ± 0.12
3,CC(C)O [propan-2-ol] + CCCC[N+]1(C)CCCC1.N#C[B-](C#N)(C#N)C#N,1.25 ± 0.06
4,ClC(Cl)(Cl)Cl [tetrachloromethane] + CCCC[N+]1(C)CCCC1.N#C[B-](C#N)(C#N)C#N,2.45 ± 0.13
5,ClC(Cl)(Cl)Cl [tetrachloromethane] + CCCC[N+]1(C)CCCC1.O=C1O[B-]2(OC1=O)OC(=O)C(=O)O2,4.14 ± 0.21
6,C1CCOC1 [tetrahydrofuran] + CCCC[N+]1(C)CCCC1.N#C[B-](C#N)(C#N)C#N,0.667 ± 0.034
7,C1CCOC1 [tetrahydrofuran] + CCCC[N+]1(C)CCCC1.O=C1O[B-]2(OC1=O)OC(=O)C(=O)O2,1.14 ± 0.05
8,c1ccsc1 [thiophene] + CCCC[N+]1(C)CCCC1.N#C[B-](C#N)(C#N)C#N,0.718 ± 0.035
9,c1ccsc1 [thiophene] + CCCC[N+]1(C)CCCC1.O=C1O[B-]2(OC1=O)OC(=O)C(=O)O2,1.12 ± 0.05
10,Cc1ccccc1 [toluene] + CCCC[N+]1(C)CCCC1.N#C[B-](C#N)(C#N)C#N,1.19 ± 0.05
11,Cc1ccccc1 [toluene] + CCCC[N+]1(C)CCCC1.O=C1O[B-]2(OC1=O)OC(=O)C(=O)O2,2.52 ± 0.13
12,ClC(Cl)Cl [trichloromethane] + CCCC[N+]1(C)CCCC1.N#C[B-](C#N)(C#N)C#N,0.683 ± 0.034
13,ClC(Cl)Cl [trichloromethane] + CCCC[N+]1(C)CCCC1.O=C1O[B-]2(OC1=O)OC(=O)C(=O)O2,1.03 ± 0.05

# Same assay, conditions: 353.15 K; 101 kPa; Liquid; Chromatography; x1 = 0
row,Compound,activity coefficient
1,C=CCCCCCC [oct-1-ene] + CCCC[N+]1(C)CCCC1.O=C1O[B-]2(OC1=O)OC(=O)C(=O)O2,34.3 ± 1.8
2,CCCCCCCC [octane] + CCCC[N+]1(C)CCCC1.N#C[B-](C#N)(C#N)C#N,25.6 ± 1.3
3,CCCCCCCC [octane] + CCCC[N+]1(C)CCCC1.O=C1O[B-]2(OC1=O)OC(=O)C(=O)O2,69.3 ± 3.6
4,CCCO [propan-1-ol] + CCCC[N+]1(C)CCCC1.N#C[B-](C#N)(C#N)C#N,1.15 ± 0.05
5,CCCO [propan-1-ol] + CCCC[N+]1(C)CCCC1.O=C1O[B-]2(OC1=O)OC(=O)C(=O)O2,2.08 ± 0.11
6,CC(C)O [propan-2-ol] + CCCC[N+]1(C)CCCC1.N#C[B-](C#N)(C#N)C#N,1.16 ± 0.05
7,ClC(Cl)(Cl)Cl [tetrachloromethane] + CCCC[N+]1(C)CCCC1.N#C[B-](C#N)(C#N)C#N,2.47 ± 0.13
8,ClC(Cl)(Cl)Cl [tetrachloromethane] + CCCC[N+]1(C)CCCC1.O=C1O[B-]2(OC1=O)OC(=O)C(=O)O2,4.07 ± 0.21
9,C1CCOC1 [tetrahydrofuran] + CCCC[N+]1(C)CCCC1.N#C[B-](C#N)(C#N)C#N,0.683 ± 0.034
10,C1CCOC1 [tetrahydrofuran] + CCCC[N+]1(C)CCCC1.O=C1O[B-]2(OC1=O)OC(=O)C(=O)O2,1.15 ± 0.05
11,c1ccsc1 [thiophene] + CCCC[N+]1(C)CCCC1.N#C[B-](C#N)(C#N)C#N,0.733 ± 0.036
12,c1ccsc1 [thiophene] + CCCC[N+]1(C)CCCC1.O=C1O[B-]2(OC1=O)OC(=O)C(=O)O2,1.12 ± 0.05
13,Cc1ccccc1 [toluene] + CCCC[N+]1(C)CCCC1.N#C[B-](C#N)(C#N)C#N,1.22 ± 0.06
14,Cc1ccccc1 [toluene] + CCCC[N+]1(C)CCCC1.O=C1O[B-]2(OC1=O)OC(=O)C(=O)O2,2.47 ± 0.13
15,ClC(Cl)Cl [trichloromethane] + CCCC[N+]1(C)CCCC1.N#C[B-](C#N)(C#N)C#N,0.711 ± 0.035
16,ClC(Cl)Cl [trichloromethane] + CCCC[N+]1(C)CCCC1.O=C1O[B-]2(OC1=O)OC(=O)C(=O)O2,1.06 ± 0.05

# Same assay, conditions: 363.15 K; 101 kPa; Liquid; Chromatography; x1 = 0
row,Compound,activity coefficient
1,C=CCCCCCC [oct-1-ene] + CCCC[N+]1(C)CCCC1.O=C1O[B-]2(OC1=O)OC(=O)C(=O)O2,31.5 ± 1.6
2,CCCCCCCC [octane] + CCCC[N+]1(C)CCCC1.O=C1O[B-]2(OC1=O)OC(=O)C(=O)O2,61.9 ± 3.2
3,CCCO [propan-1-ol] + CCCC[N+]1(C)CCCC1.O=C1O[B-]2(OC1=O)OC(=O)C(=O)O2,1.9 ± 0.1
4,CC(C)O [propan-2-ol] + CCCC[N+]1(C)CCCC1.O=C1O[B-]2(OC1=O)OC(=O)C(=O)O2,1.98 ± 0.1
5,ClC(Cl)(Cl)Cl [tetrachloromethane] + CCCC[N+]1(C)CCCC1.O=C1O[B-]2(OC1=O)OC(=O)C(=O)O2,4 ± 0.21
6,C1CCOC1 [tetrahydrofuran] + CCCC[N+]1(C)CCCC1.O=C1O[B-]2(OC1=O)OC(=O)C(=O)O2,1.15 ± 0.05
7,c1ccsc1 [thiophene] + CCCC[N+]1(C)CCCC1.O=C1O[B-]2(OC1=O)OC(=O)C(=O)O2,1.13 ± 0.05
8,Cc1ccccc1 [toluene] + CCCC[N+]1(C)CCCC1.O=C1O[B-]2(OC1=O)OC(=O)C(=O)O2,2.43 ± 0.12
9,ClC(Cl)Cl [trichloromethane] + CCCC[N+]1(C)CCCC1.O=C1O[B-]2(OC1=O)OC(=O)C(=O)O2,1.08 ± 0.05

# Same assay, conditions: 373.15 K; 101 kPa; Liquid; Chromatography; x1 = 0
row,Compound,activity coefficient
1,C=CCCCCCC [oct-1-ene] + CCCC[N+]1(C)CCCC1.O=C1O[B-]2(OC1=O)OC(=O)C(=O)O2,29.3 ± 1.5
2,CCCCCCCC [octane] + CCCC[N+]1(C)CCCC1.O=C1O[B-]2(OC1=O)OC(=O)C(=O)O2,56.1 ± 2.9
3,CCCO [propan-1-ol] + CCCC[N+]1(C)CCCC1.O=C1O[B-]2(OC1=O)OC(=O)C(=O)O2,1.76 ± 0.09
4,CC(C)O [propan-2-ol] + CCCC[N+]1(C)CCCC1.O=C1O[B-]2(OC1=O)OC(=O)C(=O)O2,1.83 ± 0.09
5,ClC(Cl)(Cl)Cl [tetrachloromethane] + CCCC[N+]1(C)CCCC1.O=C1O[B-]2(OC1=O)OC(=O)C(=O)O2,3.95 ± 0.2
6,C1CCOC1 [tetrahydrofuran] + CCCC[N+]1(C)CCCC1.O=C1O[B-]2(OC1=O)OC(=O)C(=O)O2,1.16 ± 0.05
7,c1ccsc1 [thiophene] + CCCC[N+]1(C)CCCC1.O=C1O[B-]2(OC1=O)OC(=O)C(=O)O2,1.13 ± 0.05
8,Cc1ccccc1 [toluene] + CCCC[N+]1(C)CCCC1.O=C1O[B-]2(OC1=O)OC(=O)C(=O)O2,2.4 ± 0.12
9,ClC(Cl)Cl [trichloromethane] + CCCC[N+]1(C)CCCC1.O=C1O[B-]2(OC1=O)OC(=O)C(=O)O2,1.11 ± 0.05
